Data on 8 compounds can be found in PubChem BioAssay (NCI).

Holding throughout (experiment): NCI tumour cell line growth inhibition, 48 h
For assay [1], the system named is CAKI-1 renal.
Assay [2] concerns HCC-2998 colon.
The subject of assay [3] is HCT-116 colon.
The test system of assay [4] is M14 melanoma.
Assay [5] concerns MALME-3M melanoma.
Assay [6] concerns MCF7 breast.
The test system of assay [7] is MDA-MB-231 breast.
The subject of assay [8] is MDA-N.
Assay [9] has as its system MOLT-4 leukemia.
Assay [10] relates to NCI-H23 lung.
Assay [11] has as its system NCI-H522 lung.
Assay [12] relates to OVCAR-3 ovarian.
Assay [13] has as its system OVCAR-5 ovarian.
Assay [14] relates to PC-3 prostate.
Assay [15] has as its system SF-539 CNS.
Assay [16] concerns SNB-19 CNS.
Assay [17] deals with SR leukemia.
The test system of assay [18] is T-47D breast.
Assay [19] relates to UACC-62 melanoma.
The test system of assay [20] is NCI-H460 lung.

Structures are written as SMILES.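 48-hour exposure; five concentrations; linearly interpolated endpoints. TGI is the concentration that stops growth completely.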 Bounds are passed on as bounds.

`CCOC(=O)C(NCc1ccc2c(c1)OCO2)(NC(=O)c1ccccc1)C(F)(F)F` (configuration not stated): the TGI in [1], in [2], in assay [3], in assay [4], in assay [5] and in assay [6] was over 100 µM in each case. The TGI is over 100 µM in assay [7]; over 100 µM in assay [8]; 50.8 µM in assay [9]; over 100 µM in assay [10]; over 100 µM in assay [11]; over 100 µM in assay [12]. In addition, the TGI in assay [13], in assay [14], in assay [15], in assay [16], in [17] and in [18] was over 100 µM throughout. The same compound returned a TGI in assay [19] of over 100 µM.
Regarding `O=C1C(c2c(O)[nH]c3ccc(S(=O)(=O)O)cc23)=Nc2ccc(Br)cc21`, the TGI in [1], in assay [2], in assay [3], in assay [4], in [5] and in assay [6] was over 100 µM each time. Moreover, the TGI in assay [7], in assay [8], in [9], in assay [10], in [20] and in assay [11] was over 100 µM throughout. Also, the TGI in assay [12], in [13], in assay [14], in assay [16], in [17] and in [18] was over 100 µM each time. In assay [19], this compound gave a TGI of over 100 µM.
Turning to `COC(=O)C1C(OC(=O)C(Cl)(c2ccccc2)c2ccccc2)CC2CCC1N2C` (configuration not stated), the TGI in [1], in assay [2], in assay [3], in [4], in assay [5] and in [6] was over 100 µM each time. The TGI in [7], in assay [8], in assay [9], in [10], in assay [11] and in assay [12] was over 100 µM in each case. For the same compound, the TGI in assay [13], in [14], in assay [15], in assay [16], in assay [17] and in assay [18] was over 100 µM in each case. The compound further returned a TGI in assay [19] of over 100 µM.
With `c1ccc(C2SCc3nc4cc5ccccc5cc4n32)cc1` (configuration not stated), the TGI in assay [1], in assay [2], in assay [3], in assay [4], in assay [5] and in assay [6] was over 100 µM in each case. Also, the TGI in assay [7], in [8], in [9], in assay [10], in assay [12] and in [13] was over 100 µM throughout. Moreover, the TGI in assay [14], in [15], in [16], in [17], in assay [18] and in assay [19] was over 100 µM in each case.
For the compound `Cc1ccc(/C(=C\C(=O)C(=O)NC23CC4CC(CC(C4)C2)C3)Sc2ccccc2)cc1`, the TGI in assay [1], in assay [2], in assay [4], in assay [5], in assay [6] and in assay [7] was over 10 µM in each case. The TGI in assay [8], in [9], in assay [10], in [20], in [11] and in assay [12] was over 10 µM each time. The TGI in assay [13], in assay [14], in assay [15], in assay [17] and in assay [18] was over 10 µM each time.
As for `C=CCn1c(C23CC4CC(CC(C4)C2)C3)n[nH]c1=S`, the TGI in assay [2], in [3], in [4], in assay [5], in [6] and in assay [7] was over 100 µM in each case. For the same compound, the TGI in [8], in assay [9], in assay [10], in assay [20], in assay [11] and in [12] was over 100 µM throughout. The TGI in assay [13] was over 100 µM; in [14], over 100 µM; in assay [15] it was over 100 µM; in [16], over 100 µM; in assay [17] it was 29.3 µM; in assay [18] it was over 100 µM. In addition, the TGI in [19] was over 100 µM.
Regarding `O1C2C1C1OC1C1OC1C1OC21` (configuration not stated), the TGI in assay [1], in assay [2], in assay [3], in [4], in [5] and in [6] was over 100 µM in each case. The TGI in assay [7], in [8], in assay [9], in [10], in assay [11] and in assay [13] was over 100 µM in each case. The TGI in assay [14], in [16], in [17], in assay [18] and in [19] was over 100 µM each time.
In the case of `Cc1nc2ccccc2c(=O)n1NC(=O)c1ccc([N+](=O)[O-])cc1`, the TGI in assay [2], in assay [3], in assay [4], in assay [5], in [6] and in assay [7] was over 100 µM each time. In addition, the TGI in assay [8], in [9], in assay [10], in assay [20], in assay [11] and in [12] was over 100 µM throughout. Moreover, the TGI in [13], in [14], in assay [15], in assay [16], in [17] and in assay [18] was over 100 µM throughout. This compound returned a TGI in assay [19] of over 100 µM.
